Laboratory results as given in patent US9975914B2, “Antimicrobial preparation and uses thereof” (Akeso Biomedical, Inc., priority 2015, dated 2018).
Several values for one entry are separate records, joined by “and”; a condition that tells them apart may be missing. Identical values can stand only once. Entries after “also recorded” stand apart in the source; their conditions may differ. Marks after values point to notes of the source that are not given here.

Assays:
[1] = Treatment of an acne patient; assay type: in vivo, human
Protocol: A patient was treated continuously for 30 days by applying a solution of ferric quinate (340 μM) to their acne vulgarism (“acne”) once each day. Within 5 days of the start of treatment, their acne, which had not previously responded to treatment with antibiotics, began to show signs of healing.

[2] = tested on: bacterial flora present in the mouth; assay: Biofilm formation on extracted human teeth (CEPLAC staining); assay type: cell-based; details: FeQ 340 μM; 48 hours of culturing
Protocol: Molar teeth were extracted from human patients, and mouth swabs taken from each patient to obtain samples of each patient's bacterial flora present in the mouth. The mouth swabs were cultured in the laboratory using LB media in order to grow bacterial populations ordinarily present in the mouth of each patient. The extracted teeth were washed and brushed extensively using PBS buffer and ethanol. Each patient's tooth was then placed in the bacterial culture prepared from that patient's bacterial flora sample, and cultured aerobically for 24 hours in LB media. The teeth were then stained with CEPLAC™ (Manx Healthcare Ltd, Warwick, UK), and washed three times with PBS-Tween (50 mL) to determine if biofilm had been formed on the teeth.
All teeth stained red indicating the presence of biofilm on the teeth after just 24 hours. The same teeth were then cleaned using PBS buffer and ethanol, and the procedure repeated except with 48 hours of culturing in the presence of FeQ (340 μM).

[3] = Broiler trial: growth performance; assay type: in vivo, chicken (Ross 308 male broilers)
Protocol: (§1) A study was performed to evaluate growth promotion and reduction of Campylobater carriage using FeQ and FeTyr in Ross 308 male broilers with 7 treatment groups. Each treatment group comprised four replicates of 10 birds per pen (40 birds/treatment group and 4 pens of 10 birds/treatment group), and there were 2 control groups and 5 test groups. All the test groups and one of the control groups were exposed at day 20 of the trial to dirty litter, which tested positive for Campylobacter. This method was used to provide a more natural method to Campylobater challenge the birds. Thus there was a positive control where one treatment group was challenged with Campylobacter and one negative control group where the birds were not challenged, and five treatment groups that were all challenged with Campylobacter. The total number of birds used in the 7 treatment groups was 280. Treatment group 1 was a negative control where birds just received the commercial feed, and were not challenged with dirty litter containing Campylobacter. Treatment group 2 was the positive control where the birds received the commercial feed, and were challenged with dirty litter containing Campylobater at day 20. Treatment group 3 received 0.22 g/L of FeQ in their drinking water and 0.22 g/Kg FeQ in their feed during the entire trial, and was challenged with dirty litter containing Campylobater at day 20. Treatment group 5 received 0.22 g/L of FeQ in their drinking water during the entire trial, and was challenged with dirty litter containing Campylobater at day 20. Treatment group 6 received 0.22 g/kg FeQ in their feed during the entire trial, and was challenged with dirty litter containing Campylobater at day 20. Treatment group 7 received 0.022 g/L FeQ in their drinking water during the entire trial, and was challenged with dirty litter containing Campylobater at day 20. Treatment group 8 received 0.02 g/L FeTyr in their drinking water during the entire trial, and was challenged with dirty litter containing Campylobater at day 20. The FeTyr was pre-dissolved in DMSO, and diluted to provide a solution of 0.02 g/L of FeTyr in water. (An additional treatment group 4 was terminated due to solubility issues.)
The birds were fed with a commercial three-phase feeding program using starter, grower and finisher feeds with formulations shown in Table 2. All diets had coccidiostat (MAXIBAN® at 0.0625% in starter and […] and MONTEBAN® at 0.06% in finisher phase). Xylanase (RONOZYME® WX at 200 g per ton) and phytase (RONOZYME® P at 150 grams per ton) were added to all diets.
The feeding program is show in Table 3. The birds were reared in floor pens to day 42, and fed starter, grower and finisher feed at day 0 to 11, 11 to 24, and 24 to 42 days, respectively. All birds were weighed individually and feed weigh backs recorded per pen at day 0, 11, 21, 24 and 42 days.
Prior to challenging the chickens with dirty litter containing Campylobacter at day 20, each pen was tested for Campylobater using cloacal swabs. All pens tested negative for Campylobater prior to the challenge. At day 20, litter, which was naturally Campylobacter-contaminated was tested to confirm the presence of Campylobacter, and then added (approximately 2 kg/pen) to the litter in all pens except in pens for treatment group 1 (the negative control). At day 28, the pen litter was sampled to confirm the presence or absence of Campylobacter. At day 41 and 42, caecal samples were taken from 3 birds per pen (12 birds per treatment group) and tested for Campylobater enumeration. At day 42, digesta, fecal samples, and caecal content was taken from all birds, and pooled per pen. Two birds per pen were also taken from treatment groups 1-3, euthanized, and blood samples taken. […]

[4] = tested on: Enteropathogenic E. coli (EPEC) E2348/69; assay: Crystal violet assay of attachment to plastic well surface; assay type: cell-based; details: 48 hours
Protocol: Enteropathogenic E. coli (EPEC) E2348/69 were grown in wells for 48 hours at 37° C. in the presence of FeQ (100 μM), and in the absence of FeQ (as control). After 48 hours, the wells were washed in order to remove suspended cells. Crystal violet was then added to each well. The wells were then washed to remove excess dye. A mixture of acetone/ethanol was then added to the wells to re-suspend any cells attached to the plastic surface of the wells, and dissolve any dye present. The presence of dye in each well was then quantified by measuring the O.D. at 570 nm.
Enteropathogenic E. coli (EPEC) E2348/69 were grown in wells for 48 hours at 37° C. in the presence of FeDOPA (10-250 μM), and in the absence of FeDOPA (as control). After 48 hours, the wells were washed in order to remove suspended cells. Crystal violet was then added to each well. The wells were then washed to remove excess dye. A mixture of acetone/ethanol was then added to the wells to re-suspend any cells attached to the plastic surface of the wells, and dissolve any dye present. The presence of dye in each well was then quantified by measuring the O.D. at 570 nm.

[5] = tested on: Pseudomonas aeruginosa PAO-1; assay: Biofilm coverage rate on glass slide; assay type: cell-based; details: 100 μM; 72 hours
[6] = tested on: uropathogenic Escherichia coli UPEC-536; assay: Biofilm coverage rate on glass slide; assay type: cell-based; details: 0.1 μM, 1 μM, 10 μM and 100 μM; 72 hours; listed as Fe-QA
[7] = tested on: PAO-1 strains of Pseudomonas aeruginosa; assay: Biofilm formation on contact lens (ESEM); assay type: cell-based; details: 340 μM in LB, 37° C., 24 hours
Protocol: To investigate biofilm formation on the contact lens, clinically determined PAO-1 strains of Pseudomonas aeruginosa were incubated with the lenses in either Luria-Bertani Media (LB) or LB with a final concentration of 340 μM FeQ at 37° C. for 24 hours in a non-shaking incubator. The lenses were then washed 6 times with PBS+0.05% Tween, before being stored overnight in PBS+0.05% Tween. In preparation for the ESEM, formaldehyde was added to a final concentration of 1% and incubated for 10 minutes in order to inactivate the bacteria. The lenses were then washed 4 times with PBS+0.05% Tween, and immediately before analysis the lenses were washed a further two times with distilled water.

[8] = tested on: Campylobacter; assay: Broiler trial: Campylobacter carriage in droppings and caeca; assay type: in vivo; details: chickens challenged day 20
Protocol: as §1
Prior to challenging the chickens with dirty litter containing Campylobacter at day 20, each pen was tested for Campylobater using cloacal swabs. All pens tested negative for Campylobater prior to the challenge. At day 20, litter, which was naturally Campylobacter-contaminated was tested to confirm the presence of Campylobacter, and then added (approximately 2 kg/pen) to the litter in all pens except in pens for treatment group 1 (the negative control). At day 28, the pen litter was sampled to confirm the presence or absence of Campylobacter. At day 41 and 42, caecal samples were taken from 3 birds per pen (12 birds per treatment group) and tested for Campylobater enumeration. At day 42, digesta, fecal samples, and caecal content was taken from all birds, and pooled per pen. Two birds per pen were also taken from treatment groups 1-3, euthanized, and blood samples taken. Samples were analyzed for blood chemistry, including analysis for alkaline phosphatase, aspartate amino transferase, alanine amino transferase, gamma-glutamyl transferase, lactate dehydrogenase, total protein, albumin, globulin, amylase and glucose.

[9] = tested on: Staphylococcus epidermidis F1513; assay: Biofilm formation on plastic coated UV beads; assay type: cell-based; details: different concentrations of Fe-QA; T=0 and T=24 h
Protocol: (§2) Bacteria (Enterococcus faecalis NCTC 12697, Staphylococcus epidermidis F1513 and Staphylococcus aureus ATCC 25923) were grown on Brain heart infusion (BHI) passaged to new medium either containing Fe-QA or alone. Growth suspensions were prepared at 0.0001 OD/mi and then allowed to grow at 37° C. under nounal atmospheric conditions for 24 h in BHI with plastic coated UV beads (Lascells). […], 10 μl suspension was serially diluted 10 fold to 10-3, 10-4, 10-5, 10-6, 10-7, 10-8. For each dilution, 10 μl was spotted on BHI agar plates and colonies counted after 24 h. The beads were also removed washed in PBS before adding to 1 ml PBS. After vortex mixing, 10 μl of the cell suspension was serially diluted as above and cell counts carried out.

[10] = tested on: Enterococcus faecalis NCTC 12697; assay: Biofilm formation on plastic coated UV beads; assay type: cell-based; details: different concentrations of Fe-QA; T=0 and T=24 h
Protocol: as §2

[11] = tested on: Staphylococcus aureus ATCC 25923; assay: Biofilm formation on plastic coated UV beads; assay type: cell-based; details: different concentrations of Fe-QA; T=0 and T=24 h
Protocol: as §2

[12] = tested on: mature EPEC-ΔcsrA biofilm; assay: Disruption of preformed biofilm, BioFlux system; assay type: cell-based, E. coli; details: FeDOPA 100 μM; 20 hours
[13] = FeQ treatments 3, 5, 6, 7, FeTyr treatment 8, challenged day 20
[14] = treatment 3: 0.22 g/L FeQ in water + 0.22 g/kg FeQ in feed, challenged day 20
[15] = treatment 5: 0.22 g/L FeQ in water, challenged day 20
[16] = treatment 6: 0.22 g/kg FeQ in feed, challenged day 20
[17] = treatment 7: 0.022 g/L FeQ in water, challenged day 20

In the case of `O=C([O-])C1(O)CC(O)C(O)C(O)C1.O=C([O-])C1(O)CC(O)C(O)C(O)C1.O=C([O-])C1(O)CC(O)C(O)C(O)C1.[Fe+3]` (stereo not drawn) [FeQ, ferric quinate], the “acne outcome after treatment for 30 days” value ([1]; solution 340 μM applied once each day) is reported as “completely healed”, the “recurrence of acne after discontinuation of treatment for over one year” value ([1]; solution 340 μM applied once each day for 30 days) is reported as “did not recur” and the “time to first signs of healing of acne” value ([1]; solution 340 μM applied once each day, patient) is reported as no more than 5 days. For the same compound, the “biofilm on teeth (red CEPLAC staining)” value [2] was “no teeth stained red”, the “MFCR (mortality adjusted feed conversion ratio) 0-20” value ([3]; FeQ groups 3, 5, 6, 7 pooled, absence of Campylobacter challenge) was 1.2996 and the “MFCR at day 42 versus positive control” value [3, 13] was “positive effect on MFCR”. The “average body weight at day 42 versus positive control” value [3, 13] was “positive effect on growth”, the “ABW (average body weight) Day 0” value [3, 14] was 0.040 kg and the “MFCR (mortality adjusted feed conversion ratio) Day 0-11” value [3, 14] was 1.181^ab. For the same compound, the “MFCR (mortality adjusted feed conversion ratio) Day 0-42” value [3, 14] was 1.595, the “ABW (average body weight) Day 0” value [3, 15] was 0.040 kg and the “MFCR (mortality adjusted feed conversion ratio) Day 0-11” value [3, 15] was 1.210^ab. For the same compound, the “MFCR (mortality adjusted feed conversion ratio) Day 0-42” value [3, 15] was 1.560, the “ABW (average body weight) Day 0” value [3, 16] was 0.041 kg and the “AFD (average feed intake) Day 0-11” value [3, 16] was 0.360 kg. The “AWG (average weight gain) Day 0-11” value [3, 16] was 0.310 kg, the “AWG (average weight gain) Day 11-20” value [3, 16] was 0.640 kg and the “MFCR (mortality adjusted feed conversion ratio) Day 0-11” value [3, 16] was 1.168^a. For the same compound, the “MFCR (mortality adjusted feed conversion ratio) Day 0-42” value [3, 16] was 1.563 and 1,563, the “ABW (average body weight) Day 0” value [3, 17] was 0.040 kg and the “MFCR (mortality adjusted feed conversion ratio) Day 0-11” value [3, 17] was 1.236^b. For the same compound, the “MFCR (mortality adjusted feed conversion ratio) Day 0-42” value [3, 17] was 1.612, the “attachment of EPEC cells to plastic well surface (crystal violet O.D. at 570 nm)” value ([4]; FeQ 100 μM) was “little or no attachment of bacterial cells to the surface and no biofilm formation” and the “biofilm formation (coverage rate on glass slide)” value [5] was “inhibits the formation of biofilm”. The “biofilm formation (coverage rate on glass slide)” value [6] was “inhibits founation of biofilm; also recorded: inhibits the formation of biofilm”, the “biofilm formation on contact lens (ESEM images)” value [7] was “inhibits biofilm formation” and the “average Campylobacter cfu/g of caeca samples at day 42 versus positive control” value ([8]; FeQ treatments 3, 5, 6, 7, FeTyr treatment 8) was “lower levels of Campylobacter in their caeca; also recorded: positive effect on reducing Campylobacter infection of poultry”. For the same compound, the “Campylobacter cfu/g of bird droppings at day 42 versus positive control” value ([8]; FeQ treatments 3, 6, 7, FeTyr treatment 8) was “positive effect on reducing Campylobacter infection of poultry”, the “Campylobacter colony forming units per gram of bird droppings at day 42” value ([8]; treatment 3: 0.22 g/L FeQ in water + 0.22 g/kg FeQ in feed) was 4,860 cfu/g and the “Campylobacter colony forming units per gram of bird droppings at day 42” value ([8]; treatment 6: 0.22 g/kg FeQ in feed) was 12,800 cfu/g. For the same compound, the “Campylobacter colony forming units per gram of bird droppings at day 42” value ([8]; treatment 7: 0.022 g/L FeQ in water) was 900,000 cfu/g, the “biofilm formation on plastic coated UV beads” value [9] was “inhibited S. epidermidis biofilm formation” and the “biofilm formation on plastic coated UV beads” value [10] was “inhibited E. faecalis biofilm formation”. The “biofilm formation on plastic coated UV beads” value [11] was “inhibited S. aureus biofilm formation”.
For Fe(DOPA)3 [FeDOPA], the “attachment of EPEC cells to plastic well surface (crystal violet O.D. at 570 nm)” value ([4]; FeDOPA 68-250 μM) was “attachment of bacterial cells to the surface and biofilm formation is inhibited” and the “dispersion of mature biofilm” value [12] was “dispersed the biofilm”.
